In US10435697B2, “Recombinant expression system that senses pathogenic microorganisms” (priority 2014, dated 2019):
Ends that are not written are not given here.

Key:
[1] = tested on: CqsS/CAI-1 quorum-sensing phosphorelay system of V. cholerae; assay: CAI-1 sensing by two-plasmid system (CqsS, LuxU, LuxO; GFP under pQrr4); assay type: cell-based, Vibrio cholerae; conditions: LuxO induced by arabinose
From the text: In the test construct the pBAD promoter drives LuxO. […] This is due to the downregulation of pQrr4 promoter by the CqsS cascade originating form V. cholera. In contrast, no alteration of GFP expression was observed when arabinose was present, but CAI-1 was absent. […] The system is inducible by arabinose in order to add an additional level of control.
In the next step, a double plasmid system, with the CqsS (SEQ ID NO 6), LuxU (SEQ ID NO 7) and LuxO (SEQ ID NO 8) genes expressed on one plasmid and GFP (SEQ ID NO) under pQrr4 promoter (SEQ ID NO 19) on another was generated. Thus, this system comprises the CAI-1 sensor module, in which phosphorylated LuxO activates the Qrr4 promoter. In the test construct the pBAD promoter drives LuxO, which is inducible by arabinose.
In other words, the system changes its fluorescence with different concentrations of CAI-1.

V. cholerae [2] = conditions: previously shown (Da Silva 2008; Moghaddam 2012; Yaraksa 2014); cited from earlier work
E. coli Top10 = assay: Growth curves (OD600) of E. coli Top10 after induced expression of the peptide from a plasmid; assay type: cell-based, Escherichia coli
From the text: To evaluate the activity of Microcin S (mcsS) and Microcin immunity protein (mcsI) in E. coli Top10 cells five different plasmids were constructed (FIG. 10).
Moreover, also the effect of Microcin immunity protein (mcsI) in the presence of Microcin S was studied. For this, the mcsI gene was introduced into the pBbE8K+McsS-YebF-I and pBbE8K+McsS-I plasmids resulting in pBbE8K+McsI+McsS-YebF-II and pBbE8K+McsI+McsS-II, respectively. In these constructs, mcsS expression is controlled by an araC pBAD activator-promoter (SEQ ID NO), rendering Microcin S expression inducible by L-arabinose. In contrast, mcsI expression is constitutively ON when using the rrnB promoter (SEQ ID NO 28).
Furthermore, also the effect of Microcin whole cascade in E. coli Top10 growing in liquid culture with 0.125% arabinose and without arabinose after being transformed with construct 5 of FIG. 12 was studied.
For example, in the case of CM11 (P3) the P3 gene was cloned under the arabinose promoter (pBAD) in the pBbE8K vector resulting in the pBbE8K+P3 plasmid. In other words, P3 expression in this construct is controlled by an araC PBAD activator-promoter, rendering P3 expression inducible by L-arabinose.
In addition, in order to characterize the lysis activity in E. coli, the lysis E7 gene was cloned under the tetracycline promoter (pTet) in the pBbA2C vector resulting in the pBbA2C+E7 plasmid.

pathogenic E. coli = conditions: Yaraksa et al. 2014; cited from earlier work
[3] = tested on: V. cholerae (A1522 Rugose-GFP); assay type: cell-based, Vibrio cholerae; conditions: LB broth, 18-20 h at 37° C., absorbance and GFP fluorescence monitored, DMSO control
Experimental: […]. The target cells were effectively killed at an MIC of 50 μM. As a control only DMSO was used. As the target cells express GFP embedded into its chromosome, the GFP fluorescence (B) along with the absorbance (growth) (A) was monitored in this experiment.
(§1) Moreover, a minimum inhibitory concentration (MIC) assay was conducted using CM11 (P3). The medium used for the broth microdilution test was LB Broth and the cells were V. cholera A1522-Rugose-GFP and E. coli Nissile strains. Overnight cultures were transferred into 5 ml of LB and were grown at 37° C. for 2-3 h. To approximate the density of 0.5 McFarland standard, this suspension with the inoculum concentration of 108 colony forming units (CFU/ml) was then diluted to 106 CFU/ml with the LB broth. Peptide P3 stock solution of 1000 μg/ml was prepared using DMSO. Serial two-fold dilutions of the peptide (P3) with the following concentration (2-100 μg/ml) were prepared with LB broth and placed in 96-well microtiter plates and the lowest concentration inhibiting visible growth after 18-20 h at 37° C. was recorded as MIC (see FIGS. 16 and 17).

E. coli Nissile = assay type: cell-based, Escherichia coli; conditions: LB broth, 18-20 h at 37° C., DMSO control
Experimental: FIG. 17 MIC of the synthetic peptide CM11 (P3) against E. coli Nissile. […] As a control only DMSO was used.
as §1

V. cholerae [4] = assay: Microbroth dilution assay of purified Microcin S on V. cholerae; assay type: cell-based, Vibrio cholerae
Experimental: (§2) In addition, the Microcin S peptide was purified to test its efficacy on V. cholerae and E. coli. […] Subsequently, the cells were pelleted by centrifugation at 4000 g for 20 min and lysed using a sonicator. Purification of Microcin S was carried out using Qiagen Ni-NTA fast start kit. The eluate was dialysed using Slide-A-Lyzer dialysis cassette and a 2 KDa cutoff (Life Technologies) for 4 hrs in 1×PBS. The dialysed samples were concentrated by ultra filtration using a molecular mass cutoff membrane (Amicon Ultra-15 Centrifugal Filter Unit, Millipore). As the estimated size of the protein is approximately 12 kDa, the first concentration was done using a 30 kDa cutoff membrane where the flow-through was collected and subsequently passed through a 3 kDa cutoff membrane. The resulting retentate was collected and the concentration was quantified using Quant-IT protein assay kit (Life Technologies).
(§3) The induced sample expressed has Microcin S (FIG. 13B) and the fluorescence reading from the Quant-it assay was 1135, which was close to a concentration of 200 ng/μl, calculated from the standard curve (FIG. 13A). […] After the presence of Microcin S was confirmed from the purified sample, a microbroth dilution assay was carried out to measure the minimum inhibitory concentration of purified Microcin S on V. cholerae and E. coli. […]

E. coli wt = assay: Microbroth dilution assay of purified Microcin S on E. coli; assay type: cell-based, Escherichia coli
Experimental: as §2, §3

[5] = expression induced with 0.125% L-arabinose (pBAD), vs un-induced

Molecule: CCCCCCCCCC(=O)[C@@H](O)CC [CAI-1, (S)-3-hydroxytridecan-4-one]
- GFP expression on addition of CAI-1 [1]: a drop in the GFP expression was observed

Molecule: CM15 (KWKLFKKIGAVLKVL-NH2)
- activity against V. cholerae (V. cholerae [2]): show inhibitory activity

Molecule: G12.21 (RRVSRRPMRRYRSRRPRRLV)
- activity against V. cholerae (V. cholerae [2]): effectively control the growth of V. cholerae both in vitro and in vivo

Molecule: G14.15 (GRSRWRRVSRRFMRR)
- activity against V. cholerae (V. cholerae [2]): effectively control the growth of V. cholerae both in vitro and in vivo

Molecule: Lysis E7 (MKKITGIILLLLAAIILAACQANYIRDVQGGTVSPSSTAELTGVETQ; Secretory peptide)
- time to lyse E. coli (E. coli Top10; 200 nM atc): ≤ 4 h
- OD600 of host cell after induction (lysis) (E. coli Top10; pBbA2C+E7, 200 nM anhydrotetracycline, vs un-induced): reduced significantly due to the lysis

Molecule: Magainin 2 (GIGKFLHSAKKFGKAFVGEIMNS; listed as Xenopus laevis)
- activity against pathogenic E. coli (pathogenic E. coli): good killing efficiency
- activity against V. cholerae (V. cholerae [2]): good killing efficiency

Molecule: McsS-YebF
- growth (OD600) of host cell after induction (E. coli Top10; [5]): complete growth inhibition

Molecule: WKLFKKILKVL-NH2 [CM11]
- MIC [3]: 50 µM
- MIC (E. coli Nissile): 25 µM
- activity against V. cholerae (V. cholerae [2]): show inhibitory activity
- growth (OD600) of host cell after induction (E. coli Top10; pBbE8K+P3, induced with 0.2% L-arabinose, vs un-induced, listed as CM11 (P3)): reduces the growth of E. coli
- growth (OD600) of host cell after induction (E. coli Top10; pBbE8K+P3, induced with 0.2% L-arabinose, vs un-induced, listed as P3): reduced significantly

B1: Microcin S (protein, listed as Escherichia coli)
chain: MSNIRELSFDEIALVSGGNANSNYEGGGSRSRNTGARNSLGRNAPTHIYSDPSTVKCANAVFSGMVGGAIKGGPVGMTRGTIGGAVIGQCLSGGGNGNGGGNRAGSSNCSGSNVGGTCSR
- inhibitory activity (V. cholerae [4]): has inhibitory activity
- Minimal inhibition concentration (V. cholerae [4]; LB broth, 4 hrs, OD): 100 µg/mL
- inhibitory activity (E. coli wt): has inhibitory activity
- Minimal inhibition concentration (E. coli wt; LB broth, 4 hrs, OD): 100 µg/mL
- growth (OD600) of host cell after induction (E. coli Top10; [5]): reduced OD600 readings
- growth (OD600) of host cell after induction (E. coli Top10; expression induced with 0.125% L-arabinose (pBAD), vs un-induced, listed as McsS): complete growth inhibition
